From publication PMC9126943, “ADAMTS4-specific MR probe to assess aortic aneurysms in vivo using synthetic peptide libraries” (Nature Communications, 2022)
“Also recorded” adds a separate entry of the source. Where a SMILES comes first, the peptide text is derived from it. Bridges are numbered along the chain shown (N, C = ends). The star is where a group is joined. DOTA = O=C(O)CN1CCN(CC(=O)O)CCN(CC(=O)*)CCN(CC(=O)O)CC1

How the values were obtained:
[1] = target: T1, ADAMTS4 (Homo sapiens, UniProt O75173); assay: MST of earlier manuscript version (RED-tris-NTA labeled protein); details: earlier manuscript version quoted in peer review file; RED-tris-NTA labeled ADAMTS4, FAM-5 labeled peptides; read-out: binding constant (KD)
T1 construct: This is consistent with the recombinant proteins, we used in the screening process; purchased BioTeZ Berlin-Buch GmbH 30 400 102
T1 sequence (O75173 213-685): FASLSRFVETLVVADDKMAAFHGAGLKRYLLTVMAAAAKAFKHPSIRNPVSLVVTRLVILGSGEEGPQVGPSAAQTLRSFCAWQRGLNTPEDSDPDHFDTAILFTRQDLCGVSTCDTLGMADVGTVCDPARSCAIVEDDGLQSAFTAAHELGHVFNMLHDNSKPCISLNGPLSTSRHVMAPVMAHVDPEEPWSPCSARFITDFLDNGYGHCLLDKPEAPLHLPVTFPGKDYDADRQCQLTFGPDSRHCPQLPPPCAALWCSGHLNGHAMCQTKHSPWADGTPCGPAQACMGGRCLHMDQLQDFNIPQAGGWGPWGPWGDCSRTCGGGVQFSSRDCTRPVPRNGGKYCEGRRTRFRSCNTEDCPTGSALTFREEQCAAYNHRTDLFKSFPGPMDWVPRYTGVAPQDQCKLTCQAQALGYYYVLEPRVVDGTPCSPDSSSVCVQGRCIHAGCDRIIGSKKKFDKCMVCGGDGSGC
From the text: on the beads. Additionally, we could not find any traces of proteins in the MALDI-TOF-MS […]
We identified one candidate as the most promising binding peptide for ADAMTS4 with the sequence Ser- Cys*-Gly-Arg-Arg-Ser-Cys* (Supp. Fig. 1b, c).
5. “The representation of SPR data needs to be adjusted, additional experimental details have to be added to the Supplemental figures. Please, see the comments in Supplemental for details.” We apologize to the reviewer for this oversight. All data are now added to the supplemental material. SPR was only use for classification to determine whether the peptides represent potential […]
Page 8: For the resulting ADAMTS4- specific probe, we measured a binding constant of 38 nM […]
6. […] The data quality if […]
unfortunately too poor (the amplitude too low; minimal recommended amplitude is 3). Also, why were the FAM-5 labeled peptides used in the combination with the RED-tris-NTA labeled protein? […]
Additionally, we measured the same probe against ADAMTS1 and ADAMTS5 in the same concentration range, and we could not detect binding in this range (Supp. Fig. 2a). […]
R = Ranti−His−Ab ∗ MADAMTS4 ∗ Valencyanti−His−Ab we calculated a Rmax of 5524 µRIU. […]
Before and after the run, a blank was measured. […]
19. […] Using the fluorescence of the labeled […]
We added the sensogram and calculated the protein capture (please refer to question 16).

[2] = Metabolic stability in human plasma by HPLC; type: in vitro ADME; details: lyophilized human plasma 1 g in 10 ml water, 0.2 µm filtered; 8 mg probe in 2 ml plasma; 37 °C, 700 rpm; 5 min to 24 h; HPLC C18, absorbance 220 nm, blank subtracted
Procedure: 1 g of lyophilized human plasma was dissolved in 10 ml ultrapure water and mixed for 12 h at 4 °C. Afterward, the plasma was filtered with a pore size of 0.2 µm, and the filtrate was mixed for 1 h at 37 °C. 2 ml of plasma was mixed with 8 mg of the ADAMTS4-specific probe, while 2 ml plasma was kept blank. Both samples were shaken at 37 °C at 700 rpm. After different time points (5 min, 30 min, 45 min, 1 h, 2 h, […], 18 h, and 24 h) respectively, 200 µl of both samples were removed and 200 µl guanidium HCl (6 M, pH 3) was added to each sample and mixed for 30 min at RT. Afterward, 1 ml EtOH was added, and the samples were shaken at 4 °C for 48 h. The samples were centrifuged at 4 °C, 22640 x g for 15 min, and 1 ml of the supernatant was taken. The solvent was removed with the Speedvac (Martin Christ RVC 2-18 CDplus) at 37 °C. 250 µl ultrapure water + 0.2% TFA were added into each sample and shaken overnight. The samples were centrifuged at 4 °C, 22640 x g for 15 min, and 200 µl were transferred into MS vials. The samples were measured with an AdvanceBio Peptide Map column (C18; Core-shell; length 15 cm; ID 2.1 mm) on a 1260 Infinity Bioinert Quaternary LC System (Agilent Technologies). The following conditions were used: 2 µl injections volume, flowrate 0.4 ml/min, 0–30 min 99% A to 85% A (A: ultrapure water with 0.2% TFA; B ACN with 0.16% TFA). […]

## N=C(N)NCCC[C@@H]1NC(=O)[C@H](CCCNC(=N)N)NC(=O)[C@H](CO)NC(=O)[C@@H](N)CSSC[C@@H](C(=O)N[C@@H](CO)C(=O)NCC(=O)NCC(=O)N[C@@H](CO)C(=O)NCC(=O)NCC(=O)N[C@@H](CCCCNC(=O)CN2CCN(CC(=O)O)CCN(CC(=O)O)CCN(CC(=O)O)CC2)C(=O)NCC(N)=O)NC(=O)CNC1=O (Gd complex, metal not drawn) [ADAMTS4-specific probe] (H-CSRRGCSGGSGGK(DOTA)G-NH2; disulfide 1-6)
[1]
  Kd: 38 nM
[2]
  degradation in human plasma within 24 h: No relevant degradation; also recorded: No relevant biodegradation
